Data on 16 compounds can be found in ChEMBL document CHEMBL3421575, “Cyclopropyl-containing positive allosteric modulators of metabotropic glutamate receptor subtype 5” (Bioorg Med Chem Lett, 2015).

The first data set has as its system mGluR5. In words: Selectivity index, ratio of cytotoxicity for mouse BV2 cells to IC50 for mGluR5 in mouse BV2 cells. In kind it is toxicity, cell-based, BV-2. As to conditions: read-out: Selectivity Index.
`O=C(N[C@H]1C[C@@H]1c1cccc(F)c1)c1ccccn1` (racemic): the selectivity ratio came out at 4.6.
As for `O=C(N[C@H]1C[C@@H]1c1cccc(F)c1)c1ccc([N+](=O)[O-])cc1` (racemic), the selectivity ratio was determined as 1.02.
Still for that read-out and setting: next, `O=C(Nc1ccccc1Cl)[C@H]1C[C@@H]1c1cccc(F)c1` (racemic): 5.68; `O=C(Nc1ccccc1Cl)[C@H]1C[C@@H]1c1cccc(Cl)c1` (relative stereo): 14.1.
Same read-out and setting: next, `COc1cc(Br)ccc1NC(=O)[C@H]1C[C@@H]1c1cccc(Cl)c1` (racemic): 4.37.
The same measure, in the same setting: the result for `O=C(N[C@H]1C[C@@H]1c1cccc(F)c1)c1cccc(F)c1` (racemic) reads 33; that for `O=C(Nc1nc2ccccc2[nH]1)[C@H]1C[C@@H]1c1cccc(F)c1` (racemic), 14.6.
In the case of `O=C(Nc1ccccc1F)[C@H]1C[C@@H]1c1cccc(F)c1` (racemic), the selectivity ratio worked out at 4.76.
On the same count and under the same terms, next, `O=C(Nc1nc2ccccc2s1)[C@H]1C[C@@H]1c1cccc(F)c1` (racemic): 6.49; `O=C(Nc1nc2ccccc2[nH]1)[C@H]1C[C@@H]1c1cccc(Cl)c1` (racemic): 5.96.
Consider `COc1cc(Br)ccc1NC(=O)[C@H]1C[C@@H]1c1cccc(F)c1` (racemic), for which the selectivity ratio was determined as 21.8.
On to `O=C(Nc1ccc(F)cc1)[C@H]1C[C@@H]1c1cccc(F)c1` (racemic), for which the selectivity ratio was determined as 6.25.
For the compound `O=C(N[C@H]1C[C@@H]1c1cccc(F)c1)c1cccc(Cl)c1` (relative stereo), the selectivity ratio was 5.03.
Consider `O=C(N[C@H]1C[C@@H]1c1cccc(F)c1)c1cccc([N+](=O)[O-])c1` (racemic), for which the selectivity ratio was 3.01.
On the same count and under the same terms, next, `O=C(Nc1ccc(F)cc1)[C@H]1C[C@@H]1c1cccc(Cl)c1` (relative stereo): 17.4.

The target in another data set is Metabotropic glutamate receptor 5 (Mus musculus, UniProt Q3UVX5). In words: Positive allosteric modulation at mGluR5 in mouse BV2 cells assessed as inhibition of LPS-induced NO production incubated for 1 hr prior to LPS challenge measured after 24 hrs by Griess assay. Type of data set: cell-based, BV-2.
Chain of Metabotropic glutamate receptor 5 (Q3UVX5 whole entry): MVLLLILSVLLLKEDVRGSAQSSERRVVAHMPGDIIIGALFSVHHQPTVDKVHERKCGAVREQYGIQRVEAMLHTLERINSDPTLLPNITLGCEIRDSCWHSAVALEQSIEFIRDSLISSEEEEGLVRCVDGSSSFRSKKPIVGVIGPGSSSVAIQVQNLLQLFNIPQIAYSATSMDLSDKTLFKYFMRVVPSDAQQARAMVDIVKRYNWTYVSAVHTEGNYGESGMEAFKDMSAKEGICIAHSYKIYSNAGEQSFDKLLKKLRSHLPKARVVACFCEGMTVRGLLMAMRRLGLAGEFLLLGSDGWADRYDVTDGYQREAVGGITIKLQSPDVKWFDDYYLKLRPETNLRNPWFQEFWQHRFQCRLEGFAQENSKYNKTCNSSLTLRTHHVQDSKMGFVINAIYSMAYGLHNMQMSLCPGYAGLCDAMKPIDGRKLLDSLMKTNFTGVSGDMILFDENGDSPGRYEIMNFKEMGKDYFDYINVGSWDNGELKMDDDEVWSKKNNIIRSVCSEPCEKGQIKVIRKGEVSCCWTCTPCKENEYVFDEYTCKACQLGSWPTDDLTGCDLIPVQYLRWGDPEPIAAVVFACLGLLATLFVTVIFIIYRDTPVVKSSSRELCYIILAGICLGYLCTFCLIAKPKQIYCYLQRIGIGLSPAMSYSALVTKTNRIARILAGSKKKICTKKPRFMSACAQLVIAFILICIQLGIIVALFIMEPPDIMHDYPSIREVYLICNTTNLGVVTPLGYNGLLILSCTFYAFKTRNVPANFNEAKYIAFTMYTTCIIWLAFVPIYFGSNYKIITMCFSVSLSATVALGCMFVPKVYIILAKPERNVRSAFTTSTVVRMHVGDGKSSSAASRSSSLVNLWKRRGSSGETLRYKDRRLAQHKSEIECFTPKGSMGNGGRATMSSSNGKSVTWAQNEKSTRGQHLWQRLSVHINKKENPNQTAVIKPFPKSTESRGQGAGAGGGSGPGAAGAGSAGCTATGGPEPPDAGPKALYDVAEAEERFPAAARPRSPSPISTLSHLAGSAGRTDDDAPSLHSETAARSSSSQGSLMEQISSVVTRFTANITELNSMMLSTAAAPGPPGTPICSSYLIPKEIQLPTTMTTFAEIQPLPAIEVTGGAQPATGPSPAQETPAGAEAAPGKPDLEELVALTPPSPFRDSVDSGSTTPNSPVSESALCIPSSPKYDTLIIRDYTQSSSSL
Details: not given
What is called IC50 is the concentration that gives 50% inhibition. Take `O=C(N[C@H]1C[C@@H]1c1cccc(F)c1)c1ccccn1` (racemic): the IC50 was found to be 170 µM.
The same measure, in the same setting: next, `O=C(N[C@H]1C[C@@H]1c1cccc(F)c1)c1ccc([N+](=O)[O-])cc1` (racemic): 200 µM; `O=C(Nc1ccccc1Cl)[C@H]1C[C@@H]1c1cccc(F)c1` (racemic): 180 µM; `O=C(Nc1ccccc1Cl)[C@H]1C[C@@H]1c1cccc(Cl)c1` (relative stereo): 71 µM.
On the same count and under the same terms, the result for `COc1cc(Br)ccc1NC(=O)[C@H]1C[C@@H]1c1cccc(Cl)c1` (racemic) reads 230 µM.
Same read-out and setting: the result for `O=C(N[C@H]1C[C@@H]1c1cccc(F)c1)c1cccc(F)c1` (racemic) reads 30 µM; that for `O=C(Nc1nc2ccccc2[nH]1)[C@H]1C[C@@H]1c1cccc(F)c1` (racemic), 21 µM; that for `O=C(Nc1ccccc1F)[C@H]1C[C@@H]1c1cccc(F)c1` (racemic), 210 µM.
As to `O=C(Nc1nc2ccccc2s1)[C@H]1C[C@@H]1c1cccc(F)c1` (racemic), the IC50 stood at 46 µM.
The same measure, in the same setting: next, `O=C(Nc1nc2ccccc2[nH]1)[C@H]1C[C@@H]1c1cccc(Cl)c1` (racemic): 67 µM; `COc1cc(Br)ccc1NC(=O)[C@H]1C[C@@H]1c1cccc(F)c1` (racemic): 46 µM.
Same read-out and setting: the result for `O=C(Nc1ccc(F)cc1)[C@H]1C[C@@H]1c1cccc(F)c1` (racemic) reads 160 µM; that for `O=C(N[C@H]1C[C@@H]1c1cccc(F)c1)c1cccc(Cl)c1` (relative stereo), 200 µM.
As for `O=C(N[C@H]1C[C@@H]1c1cccc(F)c1)c1cccc([N+](=O)[O-])c1` (racemic), the IC50 came to 130 µM.
For `O=C(Nc1ccc(F)cc1)[C@H]1C[C@@H]1c1cccc(Cl)c1` (relative stereo), the IC50 amounted to 58 µM.

System in the next data set: not listed separately
Nature of the data set: Cytotoxicity against mouse BV2 cells assessed as cell viability by cytotox nonradioactive assay. Type of data set: cell-based. As to conditions: bv-2.
With `O=C(N[C@H]1C[C@@H]1c1cccc(F)c1)c1ccccn1` (racemic), the Cytotoxic concentration came out at 800 µM.
`O=C(N[C@H]1C[C@@H]1c1cccc(F)c1)c1ccc([N+](=O)[O-])cc1` (racemic): the Cytotoxic concentration was 200 µM.
The same measure, in the same setting: next, `O=C(Nc1ccccc1Cl)[C@H]1C[C@@H]1c1cccc(F)c1` (racemic): 1000 µM; `Fc1cccc(/C=N/N=C/c2cccc(F)c2)c1`: 500 µM.
Regarding `O=C(Nc1ccccc1Cl)[C@H]1C[C@@H]1c1cccc(Cl)c1` (relative stereo), the Cytotoxic concentration came out at 1000 µM.
Still for that read-out and setting: the result for `COc1cc(Br)ccc1NC(=O)[C@H]1C[C@@H]1c1cccc(Cl)c1` (racemic) reads 1000 µM; that for `O=C(N[C@H]1C[C@@H]1c1cccc(F)c1)c1cccc(F)c1` (racemic), 1000 µM.
The same measure, in the same setting: the result for `O=C(Nc1nc2ccccc2[nH]1)[C@H]1C[C@@H]1c1cccc(F)c1` (racemic) reads 300 µM; that for `O=C(Nc1ccccc1F)[C@H]1C[C@@H]1c1cccc(F)c1` (racemic), 1000 µM.
The same measure, in the same setting: next, `O=C(Nc1nc2ccccc2s1)[C@H]1C[C@@H]1c1cccc(F)c1` (racemic): 300 µM.
Consider `O=C(Nc1nc2ccccc2[nH]1)[C@H]1C[C@@H]1c1cccc(Cl)c1` (racemic), for which the Cytotoxic concentration worked out at 400 µM.
Regarding `COc1cc(Br)ccc1NC(=O)[C@H]1C[C@@H]1c1cccc(F)c1` (racemic), the Cytotoxic concentration came to 1000 µM.
Still for that read-out and setting: next, `O=C(Nc1ccc(F)cc1)[C@H]1C[C@@H]1c1cccc(F)c1` (racemic): 1000 µM; `O=C(N[C@H]1C[C@@H]1c1cccc(F)c1)c1cccc(Cl)c1` (relative stereo): 1000 µM.
The same measure, in the same setting: next, `O=C(N[C@H]1C[C@@H]1c1cccc(F)c1)c1cccc([N+](=O)[O-])c1` (racemic): 400 µM.
Still for that read-out and setting: the result for `O=C(Nc1ccc(F)cc1)[C@H]1C[C@@H]1c1cccc(Cl)c1` (relative stereo) reads 1000 µM.
